According to patent publication US20250140406A1, “CLASSIFYING TUMORS AND PREDICTING RESPONSIVENESS” (Oncocyte Corporation, priority 2022, published 2025):
Like-named read-outs stand apart in the source and are kept apart here. Square brackets hold non-standard residues; d marks the D form. Peptide text beside a SMILES is read from it. * marks the point of attachment. dPhe(4-NHCONH2) = NC(=O)Nc1ccc(C[C@@H](N)C(=O)O)cc1; Dihydroorotyl(S) = O=C1C[C@@H](C(=O)*)NC(=O)N1; dPhe(4-Cl) = N[C@H](Cc1ccc(Cl)cc1)C(=O)O; Phe(4-NH2) = Nc1ccc(C[C@H](N)C(=O)O)cc1; d2Nal = N[C@H](Cc1ccc2ccccc2c1)C(=O)O; Lys(iPr) = CC(C)NCCCC[C@H](N)C(=O)O; d3Pal = N[C@H](Cc1cccnc1)C(=O)O

Key:
[1] = tested on: cancer cell lines classified IM, MSL, M; experiment: PRISM screen compound sensitivity correlated with IM, MSL and M subtype of cell lines (101 gene signature); type: cell-based; conditions: for TNBCType train: 101 gene signature
[2] = tested on: cancer cell lines, DetermaIO classes; experiment: Association of PRISM compound sensitivity with DetermaIO (DTIO) cell line classes; type: cell-based
[3] = correlation of PRISM compound sensitivity with IM subtype correlation, test cell set (188 cell lines)
[4] = correlation of PRISM compound sensitivity with M subtype correlation, test cell set (188 cell lines)
[5] = correlation of PRISM compound sensitivity with MSL subtype correlation, test cell set (188 cell lines)
[6] = subtype (IM, MSL or M) with which compound sensitivity is negatively correlated, training cell set (371 cell lines)
[7] = correlation of PRISM compound sensitivity with DTIO, test cell set
[8] = correlation of PRISM compound sensitivity with DTIO, training cell set
[9] = correlation of PRISM compound sensitivity with IM subtype correlation, test cell set
[10] = correlation of PRISM compound sensitivity with M subtype correlation, test cell set
[11] = correlation of PRISM compound sensitivity with MSL subtype correlation, test cell set
[12] = subtype (IM, MSL or M) with which PRISM compound sensitivity is negatively correlated, training cell set
[13] = subtype (IM, MSL or M) assigned to the compound by negative correlation of PRISM sensitivity with subtype, training cell set (371 cell lines)
[14] = correlation of PRISM compound sensitivity with DTIO (DetermaIO), test cell set (188 cell lines)
[15] = correlation of PRISM compound sensitivity with DTIO (DetermaIO), training cell set (371 cell lines)
[16] = subtype (IM, MSL or M) the PRISM compound sensitivity is associated with, training cell set (371 cell lines)
[17] = correlation of PRISM compound sensitivity with DTIO, test cell set (188 cell lines)
[18] = correlation of PRISM compound sensitivity with DTIO, training cell set (371 cell lines)

CC(=O)N[C@H](Cc1ccc2ccccc2c1)C(=O)N[C@H](Cc1ccc(Cl)cc1)C(=O)N[C@H](Cc1cccnc1)C(=O)N[C@@H](CO)C(=O)N[C@@H](Cc1ccc(NC(=O)[C@@H]2CC(=O)NC(=O)N2)cc1)C(=O)N[C@H](Cc1ccc(NC(N)=O)cc1)C(=O)N[C@@H](CC(C)C)C(=O)N[C@@H](CCCCNC(C)C)C(=O)N1CCC[C@H]1C(=O)N[C@H](C)C(N)=O [degarelix] (Ac-[d2Nal][dPhe(4-Cl)][d3Pal]S[Phe(4-NH2)](Dihydroorotyl(S))[dPhe(4-NHCONH2)]L[Lys(iPr)]P[dA]-NH2)
IM Corr test [1, 3]: 0.000275
M Corr test [1, 4]: −0.03554
MSL Corr test [1, 5]: −0.05421
TNBCType train [1, 6]: MSL
DTIO Corr test [2, 7]: −0.01776
DTIO Corr train [2, 8]: 0.01996

CCN(CC)C(=S)[S-].O.O.O.[Na+] [ditiocarb-sodium-trihydrate]
IM Corr test [1, 9]: −0.07988
M Corr test [1, 10]: 0.03103
MSL Corr test [1, 11]: −0.01951
TNBCType train [1, 12]: MSL
DTIO Corr test [2, 7]: −0.1096
DTIO Corr train [2, 8]: −0.01519

C[C@]12N[C@H](Cc3ccccc31)c1ccccc12 [dizocilpine-(−)]
IM Corr test [1, 9]: −0.0703
M Corr test [1, 10]: −0.00928
MSL Corr test [1, 11]: −0.09183
TNBCType train [1, 12]: MSL
DTIO Corr test [2, 7]: −0.06945
DTIO Corr train [2, 8]: 0.02729

CC[C@H](C)[C@@H]([C@@H](CC(=O)N1CCC[C@H]1[C@H](OC)[C@@H](C)C(=O)N[C@@H](Cc1ccccc1)c1nccs1)OC)N(C)C(=O)[C@@H](NC(=O)[C@H](C(C)C)N(C)C)C(C)C [dolastatin-10]
IM Corr test [1, 3]: −0.05477
M Corr test [1, 4]: 0.003299
MSL Corr test [1, 5]: −0.00011
TNBCType train [1, 13]: MSL
DTIO Corr test [2, 14]: −0.08086
DTIO Corr train [2, 15]: −0.07579

C[C@H](N[C@@H](CCc1ccccc1)C(=O)O)C(=O)N1CCC[C@H]1C(=O)O [enalaprilat]
IM Corr test [1, 3]: 0.03404
M Corr test [1, 4]: −0.06381
MSL Corr test [1, 5]: −0.1038
TNBCType train [1, 16]: MSL
DTIO Corr test [2, 17]: −0.03184
DTIO Corr train [2, 18]: 0.0604

C=C1C[C@@H]2[C@H](CC[C@]3(C)C(=O)CC[C@@H]23)[C@@]2(C)C=CC(=O)C=C12 [exemestane]
IM Corr test [1]: 0.07921
M Corr test [1]: −0.1056
MSL Corr test [1]: −0.04525
DTIO Corr test [2]: 0.03291
DTIO Corr train [2]: 0.03081

CCC(O)(c1ccccc1)c1cccc(C(F)(F)F)c1 (stereo not drawn) [flumecinol]
IM Corr test [1, 3]: 0.06404
M Corr test [1, 4]: −0.06491
MSL Corr test [1, 5]: −0.09398
TNBCType train [1, 6]: MSL
DTIO Corr test [2, 7]: 0.03786
DTIO Corr train [2, 8]: 0.02706

OCCN1CCN(CC/C=C2/c3ccccc3Sc3ccc(C(F)(F)F)cc32)CC1 [flupentixol]
IM Corr test [1, 3]: −0.05449
M Corr test [1, 4]: 0.1086
MSL Corr test [1, 5]: 0.1536
DTIO Corr test [2, 14]: −0.04775
DTIO Corr train [2, 15]: −0.1041

C[C@H](C(=O)O)c1ccc(-c2ccccc2)c(F)c1 [flurbiprofen-(S)-(+)]
IM Corr test [1, 3]: −0.0194
M Corr test [1, 4]: 0.01889
MSL Corr test [1, 5]: 0.02942
DTIO Corr test [2, 14]: −0.0319
DTIO Corr train [2, 15]: −0.04195

CNC(=O)CN(CCN(CCN(CC(=O)[O-])CC(=O)NC)CC(=O)[O-])CC(=O)[O-].[Gd+3] [gadodiamide]
IM Corr test [1, 9]: −0.07426
M Corr test [1, 10]: 0.04886
MSL Corr test [1, 11]: −0.03759
DTIO Corr test [2, 7]: −0.0433
DTIO Corr train [2, 8]: −0.1128

CC(O)CN1CCN(CC(=O)[O-])CCN(CC(=O)[O-])CCN(CC(=O)[O-])CC1.[Gd+3] (stereo not drawn) [gadoteridol]
IM Corr test [1, 3]: −0.02624
M Corr test [1, 4]: −0.02135
MSL Corr test [1, 5]: −0.00929
TNBCType train [1, 6]: MSL
DTIO Corr test [2, 7]: −0.08228
DTIO Corr train [2, 8]: −0.04116

CC(C)=CCC[C@](C)(O[C@@H]1O[C@H](CO)[C@@H](O)[C@H](O)[C@H]1O)[C@H]1CC[C@]2(C)[C@@H]1[C@H](O)C[C@@H]1[C@@]3(C)CC[C@H](O[C@@H]4O[C@H](CO)[C@@H](O)[C@H](O)[C@H]4O[C@@H]4O[C@H](CO)[C@@H](O)[C@H](O)[C@H]4O)C(C)(C)[C@@H]3CC[C@]12C [ginsenoside-rd]
IM Corr test [1]: −0.05744
M Corr test [1]: −0.00784
MSL Corr test [1]: −0.02352
TNBCType train [1, 6]: MSL
DTIO Corr test [2]: −0.0392
DTIO Corr train [2]: −0.02011

CC(C)=CCC[C@](C)(O)[C@H]1CC[C@]2(C)[C@@H]1[C@H](O)C[C@@H]1[C@@]3(C)CC[C@H](O[C@@H]4O[C@H](CO)[C@@H](O)[C@H](O)[C@H]4O[C@@H]4O[C@H](CO)[C@@H](O)[C@H](O)[C@H]4O)C(C)(C)[C@@H]3CC[C@]12C [ginsenoside-rg3]
IM Corr test [1, 3]: 0.007852
M Corr test [1, 4]: −0.05841
MSL Corr test [1, 5]: −0.02955
DTIO Corr test [2, 7]: −0.00056
DTIO Corr train [2, 8]: 0.0566

CC(C)C[C@H](NC(=O)CNC(=O)[C@H](Cc1ccc(O)cc1)NC(=O)[C@H](CO)NC(=O)[C@H](Cc1c[nH]c2ccccc12)NC(=O)[C@H](Cc1cnc[nH]1)NC(=O)[C@@H]1CCC(=O)N1)C(=O)N[C@@H](CCCNC(=N)N)C(=O)N1CCC[C@H]1C(=O)NCC(N)=O [gonadorelin]
IM Corr test [1, 3]: −0.1061
M Corr test [1, 4]: −0.01145
MSL Corr test [1, 5]: −0.1224
TNBCType train [1, 16]: MSL
DTIO Corr test [2, 17]: −0.06774
DTIO Corr train [2, 18]: −0.05189

O=C(O)Cc1cccnc1C(=O)O [homoquinolinic-acid]
IM Corr test [1, 9]: −0.08778
M Corr test [1, 10]: 0.05663
MSL Corr test [1, 11]: 0.003236
DTIO Corr test [2, 7]: −0.0252
DTIO Corr train [2, 8]: −0.1121

O=C(O)CCCN1C(=O)c2cccc3cccc(c23)C1=O [isodibut]
IM Corr test [1, 3]: −0.04572
M Corr test [1, 4]: −0.03436
MSL Corr test [1, 5]: −0.1039
TNBCType train [1, 13]: MSL
DTIO Corr test [2, 14]: −0.0652
DTIO Corr train [2, 15]: 0.05075

CNC(C)CCC=C(C)C.CNC(C)CCC=C(C)C.O=C(O)[C@@H](O)[C@H](O)[C@H](O)[C@@H](O)C(=O)O [isometheptene-mucate]
IM Corr test [1, 3]: −0.09289
M Corr test [1, 4]: 0.05313
MSL Corr test [1, 5]: 0.118
DTIO Corr test [2, 7]: −0.04443
DTIO Corr train [2, 8]: −0.1179

C[C@]12CC[C@H]3[C@@H](CC[C@]4(O)C[C@@H](O)CC[C@]34C=O)[C@@]1(O)CC[C@@H]2C1=CC(=O)OC1 [k-strophanthidin]
IM Corr test [1, 3]: −0.06974
M Corr test [1, 4]: −0.03165
MSL Corr test [1, 5]: −0.1099
TNBCType train [1, 6]: MSL
DTIO Corr test [2, 7]: −0.03307
DTIO Corr train [2, 8]: −0.01124

O=C(CCn1cnc2c(=O)[nH]cnc21)Nc1ccc(C(=O)O)cc1 [leteprinim]
IM Corr test [1, 9]: 0.08575
M Corr test [1, 10]: −0.1262
MSL Corr test [1, 11]: −0.09795
TNBCType train [1, 12]: MSL
DTIO Corr test [2, 7]: 0.02507
DTIO Corr train [2, 8]: −0.08293

N=C(N)NC(=N)Nc1cccc(Cl)c1 [m-Chlorophenylbiguanide]
IM Corr test [1, 9]: −0.148
M Corr test [1, 10]: 0.08655
MSL Corr test [1, 11]: 0.1129
DTIO Corr test [2, 7]: −0.0968
DTIO Corr train [2, 8]: −0.09639

O=C(O)[C@H](O)[C@@H](O)[C@H](O[C@@H]1O[C@H](CO)[C@H](O)[C@H](O)[C@H]1O)[C@H](O)CO [maltobionic-acid]
IM Corr test [1, 3]: 0.1078
M Corr test [1, 4]: −0.08169
MSL Corr test [1, 5]: 0.03716
DTIO Corr test [2, 7]: 0.13
DTIO Corr train [2, 8]: 0.09859
